Results reported in patent US9040553B2, “Phenoxyisobutyric acid compounds and method of synthesis” (CELL VIABLE CORPORATION, priority 2010, dated 2015).

Target: BSA (Bos taurus, UniProt P02769)
Assay: BSA glycation inhibition (glucose incubation, SDS gel/PVDF blot, periodic acid-Schiff staining)
Type: biochemical
Conditions: BSA incubated with glucose and compound at 37° C. for 5 weeks; periodic acid-Schiff base staining of blot
Protocol: Compound No. 1 was tested for glycation activity according to the following protocol:
BSA was incubated in the presence of glucose and Compound No. 1 at 37° C. for 5 weeks. Aliquots of 2 μg protein were run on an SDS gel and transferred to PVDF membrane—the same procedure as for a western blot. The membrane was then processed to identify glycoprotein content by the periodic acid-Schiff base method. The positive reaction is pink, and glycation also shifts the molecular weight so the band migrates more slowly down the gel (higher position on the blot). […] Amimoguanadine was used as a control Reduced staining is an indication of glycation inhibition.

Chain of BSA (P02769 25-607): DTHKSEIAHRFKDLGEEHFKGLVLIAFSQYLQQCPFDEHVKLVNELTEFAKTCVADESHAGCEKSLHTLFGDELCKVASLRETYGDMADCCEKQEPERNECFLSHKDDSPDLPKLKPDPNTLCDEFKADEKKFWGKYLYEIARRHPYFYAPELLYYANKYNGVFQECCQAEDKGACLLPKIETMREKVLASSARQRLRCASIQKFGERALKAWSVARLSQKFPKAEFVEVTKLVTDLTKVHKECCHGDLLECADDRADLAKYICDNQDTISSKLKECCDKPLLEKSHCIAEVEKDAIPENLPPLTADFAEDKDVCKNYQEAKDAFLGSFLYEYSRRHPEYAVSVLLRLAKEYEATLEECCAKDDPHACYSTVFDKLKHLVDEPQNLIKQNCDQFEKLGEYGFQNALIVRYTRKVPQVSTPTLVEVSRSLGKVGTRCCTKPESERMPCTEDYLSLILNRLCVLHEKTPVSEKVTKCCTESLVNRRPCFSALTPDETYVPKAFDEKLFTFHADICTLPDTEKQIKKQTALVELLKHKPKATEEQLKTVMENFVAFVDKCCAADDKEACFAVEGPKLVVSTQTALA

## 3,3′-dichloro-1,1′-diphenyl-4,4′-diureidophenoxyisobutyric acid [Compound No. 1]
  glycation inhibition (reduced glycoprotein staining): found to inhibit glycation
